In ChEMBL document CHEMBL1201862, “PubChem BioAssay data set” (2004):
The source made the active and inactive calls.

Tests used:
Vero [1] = test: cells; format: functional; conditions: Chlorocebus sabaeus
[2] = target: SWI/SNF-related matrix-associated actin-dependent regulator of chromatin subfamily A member 2 (Homo sapiens, UniProt P51531); test: Luminescence-based cell-based high throughput dose response assay to identify activators of the function of SWI/SNF related, matrix associated, actin dependent regulator of chromatin, subfamily a, member 2 (SMARCA2, BRM).; format: functional
SWI/SNF-related matrix-associated actin-dependent regulator of chromatin subfamily A member 2, sequence (P51531 whole entry): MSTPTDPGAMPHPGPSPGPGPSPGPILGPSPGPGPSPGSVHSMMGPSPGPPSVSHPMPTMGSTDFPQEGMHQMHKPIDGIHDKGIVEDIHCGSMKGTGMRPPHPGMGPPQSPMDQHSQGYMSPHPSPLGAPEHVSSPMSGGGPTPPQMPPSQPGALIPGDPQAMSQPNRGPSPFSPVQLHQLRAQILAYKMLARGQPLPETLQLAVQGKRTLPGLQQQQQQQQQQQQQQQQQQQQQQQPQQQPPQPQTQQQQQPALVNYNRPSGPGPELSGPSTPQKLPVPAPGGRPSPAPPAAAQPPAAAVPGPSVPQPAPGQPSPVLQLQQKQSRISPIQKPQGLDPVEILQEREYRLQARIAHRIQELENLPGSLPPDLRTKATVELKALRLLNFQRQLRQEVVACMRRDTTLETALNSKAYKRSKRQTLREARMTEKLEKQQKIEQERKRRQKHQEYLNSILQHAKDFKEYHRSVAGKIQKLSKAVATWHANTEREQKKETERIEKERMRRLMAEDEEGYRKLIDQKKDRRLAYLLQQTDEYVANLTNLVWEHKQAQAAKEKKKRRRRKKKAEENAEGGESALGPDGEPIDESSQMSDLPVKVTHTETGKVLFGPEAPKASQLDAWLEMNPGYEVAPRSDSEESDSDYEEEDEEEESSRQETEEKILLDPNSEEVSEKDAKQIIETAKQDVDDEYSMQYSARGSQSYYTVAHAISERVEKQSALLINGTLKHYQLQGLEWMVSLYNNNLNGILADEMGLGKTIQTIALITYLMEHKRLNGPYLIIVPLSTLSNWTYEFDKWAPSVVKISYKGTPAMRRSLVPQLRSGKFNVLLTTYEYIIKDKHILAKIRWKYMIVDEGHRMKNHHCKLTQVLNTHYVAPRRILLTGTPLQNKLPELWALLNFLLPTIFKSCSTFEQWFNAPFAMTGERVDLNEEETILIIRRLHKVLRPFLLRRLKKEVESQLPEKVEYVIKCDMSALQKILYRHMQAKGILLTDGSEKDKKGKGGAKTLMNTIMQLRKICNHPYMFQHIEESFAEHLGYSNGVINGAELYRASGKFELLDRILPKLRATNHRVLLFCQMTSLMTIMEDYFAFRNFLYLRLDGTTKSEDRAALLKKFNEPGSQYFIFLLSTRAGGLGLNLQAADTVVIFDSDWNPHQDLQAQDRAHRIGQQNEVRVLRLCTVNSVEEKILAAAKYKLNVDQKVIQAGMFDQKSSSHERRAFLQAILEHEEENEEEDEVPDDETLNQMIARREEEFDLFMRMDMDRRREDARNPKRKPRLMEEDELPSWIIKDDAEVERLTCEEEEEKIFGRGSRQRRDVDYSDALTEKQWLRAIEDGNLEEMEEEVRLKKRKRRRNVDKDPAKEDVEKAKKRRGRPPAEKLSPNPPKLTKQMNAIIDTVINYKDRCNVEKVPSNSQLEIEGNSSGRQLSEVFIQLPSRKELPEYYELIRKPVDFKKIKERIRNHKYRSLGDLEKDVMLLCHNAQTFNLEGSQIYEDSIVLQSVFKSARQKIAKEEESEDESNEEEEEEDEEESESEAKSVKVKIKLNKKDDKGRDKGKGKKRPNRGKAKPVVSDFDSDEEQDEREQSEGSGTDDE

[3] = Counterscreen for activators of the function of SWI/SNF related, matrix associated, actin dependent regulator of chromatin, subfamily a, member 2 (SMARCA2, BRM): Luminescence-based cell-based high throughput dose response assay to identify non-selective compounds using the VP16 reporter assay.; format: functional
Vero [4] = test: cells; format: functional, cell-based; conditions: Chlorocebus sabaeus
Prothrombin = Prothrombin (Bos taurus, UniProt P00735); test: thrombin inhibition, dose response, biochemical, fluorescence polarization, uHTS hits (AID 602369); format: functional
[5] = target: 26S proteasome non-ATPase regulatory subunit 14 (Homo sapiens, UniProt O00487); test: inhibition of proteasome subunit RPN11 – biochemical, fluorescence polarization, uHTS hits, confirmation (AID 602368); format: functional
26S proteasome non-ATPase regulatory subunit 14, sequence (O00487 whole entry): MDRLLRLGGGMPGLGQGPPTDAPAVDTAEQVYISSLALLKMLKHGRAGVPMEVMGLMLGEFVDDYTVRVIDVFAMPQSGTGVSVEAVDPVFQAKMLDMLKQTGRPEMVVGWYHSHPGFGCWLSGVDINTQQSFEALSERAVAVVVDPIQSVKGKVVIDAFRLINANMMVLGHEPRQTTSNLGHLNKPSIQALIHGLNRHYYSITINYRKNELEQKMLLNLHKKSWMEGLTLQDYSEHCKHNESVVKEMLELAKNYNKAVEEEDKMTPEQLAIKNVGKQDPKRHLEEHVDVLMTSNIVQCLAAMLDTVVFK

[6] = target: 72 kDa type IV collagenase (Homo sapiens, UniProt P08253); test: Dose Response validation of uHTS RPN11 inhibitor hits using a MMP-2 Fluorescence assay.; format: functional
72 kDa type IV collagenase, sequence (P08253 whole entry): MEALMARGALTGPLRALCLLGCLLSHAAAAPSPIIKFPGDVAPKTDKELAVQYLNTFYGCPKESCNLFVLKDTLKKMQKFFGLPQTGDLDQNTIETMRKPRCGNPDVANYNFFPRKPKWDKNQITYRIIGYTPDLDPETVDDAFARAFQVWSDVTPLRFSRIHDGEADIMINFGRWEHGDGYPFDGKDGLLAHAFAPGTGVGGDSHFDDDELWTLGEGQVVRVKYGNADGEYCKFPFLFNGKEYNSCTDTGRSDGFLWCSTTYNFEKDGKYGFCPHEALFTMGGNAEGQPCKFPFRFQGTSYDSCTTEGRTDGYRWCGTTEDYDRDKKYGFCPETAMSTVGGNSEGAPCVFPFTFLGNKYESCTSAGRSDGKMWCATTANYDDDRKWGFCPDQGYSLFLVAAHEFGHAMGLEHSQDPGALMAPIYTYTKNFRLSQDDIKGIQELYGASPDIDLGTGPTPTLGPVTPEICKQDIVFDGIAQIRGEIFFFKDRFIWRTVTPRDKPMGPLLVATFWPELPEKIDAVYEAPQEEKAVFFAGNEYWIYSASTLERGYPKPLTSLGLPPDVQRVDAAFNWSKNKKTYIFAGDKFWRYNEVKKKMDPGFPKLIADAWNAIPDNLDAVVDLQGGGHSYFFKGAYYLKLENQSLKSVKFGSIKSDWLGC

cells [7] = format: functional, cell-based
[8] = target: Nuclear receptor subfamily 0 group B member 1 (Homo sapiens, UniProt P51843); format: functional, cell-based;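 further: HEK293T cells transfected with SF-1 and DAX-1 plus StAR promoter luciferase reporter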
Nuclear receptor subfamily 0 group B member 1, sequence (P51843 whole entry): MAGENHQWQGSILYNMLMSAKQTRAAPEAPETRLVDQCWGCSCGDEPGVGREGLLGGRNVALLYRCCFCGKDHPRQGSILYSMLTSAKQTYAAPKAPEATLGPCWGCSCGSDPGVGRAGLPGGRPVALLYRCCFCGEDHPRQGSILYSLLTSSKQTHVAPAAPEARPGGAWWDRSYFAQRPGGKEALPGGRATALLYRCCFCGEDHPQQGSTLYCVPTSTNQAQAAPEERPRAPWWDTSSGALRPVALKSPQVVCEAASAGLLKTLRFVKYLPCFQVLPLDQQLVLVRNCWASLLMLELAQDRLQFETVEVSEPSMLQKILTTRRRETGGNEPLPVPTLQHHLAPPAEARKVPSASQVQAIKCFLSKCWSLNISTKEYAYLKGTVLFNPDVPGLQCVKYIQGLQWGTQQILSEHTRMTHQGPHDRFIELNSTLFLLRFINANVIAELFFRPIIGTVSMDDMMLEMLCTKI

[9] = target: Melanin-concentrating hormone receptor 1 (Homo sapiens, UniProt Q99705); test: Late-stage fluorescence-based counterscreen for antagonists of the G-protein coupled receptor 7 (GPR7): cell-based dose response assay to identify antagonists of the melanin-concentrating hormone receptor 1 (MCHR1) Set 6.; format: functional
Melanin-concentrating hormone receptor 1, sequence (Q99705 whole entry): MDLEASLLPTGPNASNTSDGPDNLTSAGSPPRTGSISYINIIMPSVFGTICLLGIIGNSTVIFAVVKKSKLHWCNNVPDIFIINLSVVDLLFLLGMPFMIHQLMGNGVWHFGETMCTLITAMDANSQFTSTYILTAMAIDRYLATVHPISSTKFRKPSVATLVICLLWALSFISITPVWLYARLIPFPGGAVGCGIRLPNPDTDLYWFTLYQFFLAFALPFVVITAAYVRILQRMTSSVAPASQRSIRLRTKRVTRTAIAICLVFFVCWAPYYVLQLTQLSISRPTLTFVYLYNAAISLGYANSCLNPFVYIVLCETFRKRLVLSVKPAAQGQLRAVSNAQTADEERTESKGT

[10] = inhibitors of SNCA 5'UTR-driven reporter translation, confirmation, H4 neuroglioma cells, luminescence (AID 1988); format: functional, cell-based
A-375 = test: A375 melanoma cell viability reduction, dose response, counter-screen for MITF modulator project, cherry-pick samples, set 2 (AID 540335); format: functional, cell-based; conditions: Homo sapiens
[11] = target: T1, Microphthalmia-associated transcription factor (Homo sapiens, UniProt O75030); test: TRPM1 promoter luciferase signal decrease, dose response, MITF inhibitor project, cell-based, SK-MEL-5, cherry-picked, set 3 (AID 493073); format: functional
T1 sequence (O75030 whole entry): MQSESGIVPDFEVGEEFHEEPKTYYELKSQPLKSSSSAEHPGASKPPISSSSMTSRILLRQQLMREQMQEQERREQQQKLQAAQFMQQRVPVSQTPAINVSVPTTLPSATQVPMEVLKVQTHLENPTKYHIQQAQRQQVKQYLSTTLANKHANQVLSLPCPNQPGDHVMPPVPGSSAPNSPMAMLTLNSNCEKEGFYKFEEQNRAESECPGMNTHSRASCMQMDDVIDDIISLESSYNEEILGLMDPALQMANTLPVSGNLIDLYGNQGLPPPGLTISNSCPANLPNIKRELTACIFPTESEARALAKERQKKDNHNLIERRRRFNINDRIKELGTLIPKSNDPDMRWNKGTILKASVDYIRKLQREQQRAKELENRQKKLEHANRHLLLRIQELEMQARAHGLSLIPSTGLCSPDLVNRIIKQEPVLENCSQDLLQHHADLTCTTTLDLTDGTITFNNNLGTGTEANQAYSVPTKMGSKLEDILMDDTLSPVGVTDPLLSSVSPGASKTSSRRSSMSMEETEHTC

[12] = inhibitors of firefly luciferase expression or activity, dose response, H4 neuroglioma cells, luminescence (AID 1990); format: functional, cell-based
cells [13] = format: functional, cell-based; remark: listed apart in the source
cells [14] = format: functional, cell-based; remark: listed apart in the source
INS1 = test: beta cell apoptosis inhibitors, cytokine rescue, dose response, luminescence, retest (AID 449756); format: functional, cell-based; conditions: Rattus norvegicus;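 further: cell death triggered by IL-1 beta plus TNF-alpha plus IFN-gamma mixture; protective hits raise ATP signal compared with cytokine alone wells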
Escherichia coli = test: microbe, parasite or virus in culture
[15] = Luminescence Cell-Based Dose Response HTS to Identify Inhibitors of 5'UTR Stem-Loop Driven Prion Protein mRNA Translation in H4 Neuroglioblastoma Cells. [Related pubchem assays: 1827 (Project Summary), 1813 (Primary HTS)]; format: functional
[16] = target: T2, Rac GTPase-activating protein 1 (Homo sapiens, UniProt Q9H0H5); test: MgcRacGAP GTPase-activating activity inhibitors, confirmation, biochemical, ADP Hunter fluorescence, primary and confirmatory (AID 624330); format: functional
T2 sequence (Q9H0H5 whole entry): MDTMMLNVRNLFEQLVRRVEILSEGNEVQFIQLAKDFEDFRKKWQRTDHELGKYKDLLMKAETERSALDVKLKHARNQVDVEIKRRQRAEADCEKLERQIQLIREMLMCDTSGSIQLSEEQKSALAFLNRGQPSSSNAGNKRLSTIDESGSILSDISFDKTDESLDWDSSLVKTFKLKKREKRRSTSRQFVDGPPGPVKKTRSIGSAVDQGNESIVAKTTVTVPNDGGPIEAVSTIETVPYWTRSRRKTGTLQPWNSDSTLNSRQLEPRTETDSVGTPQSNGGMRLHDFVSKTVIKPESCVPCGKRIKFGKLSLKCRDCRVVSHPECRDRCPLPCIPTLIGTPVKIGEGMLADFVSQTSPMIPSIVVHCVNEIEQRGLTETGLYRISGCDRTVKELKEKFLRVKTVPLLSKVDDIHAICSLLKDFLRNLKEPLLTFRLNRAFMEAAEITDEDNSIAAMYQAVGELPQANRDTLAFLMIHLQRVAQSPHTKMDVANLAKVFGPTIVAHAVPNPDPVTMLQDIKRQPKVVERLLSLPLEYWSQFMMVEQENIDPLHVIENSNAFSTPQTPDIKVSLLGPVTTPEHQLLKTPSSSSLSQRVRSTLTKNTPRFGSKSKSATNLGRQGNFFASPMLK

Large T antigen = Large T antigen (Simian virus 40, UniProt P03070); format: functional, Betapolyomavirus macacae;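 further: Confirmatory-stage PubChem screen for compounds that inhibit SV40 T antigen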
Large T antigen, sequence (P03070 whole entry): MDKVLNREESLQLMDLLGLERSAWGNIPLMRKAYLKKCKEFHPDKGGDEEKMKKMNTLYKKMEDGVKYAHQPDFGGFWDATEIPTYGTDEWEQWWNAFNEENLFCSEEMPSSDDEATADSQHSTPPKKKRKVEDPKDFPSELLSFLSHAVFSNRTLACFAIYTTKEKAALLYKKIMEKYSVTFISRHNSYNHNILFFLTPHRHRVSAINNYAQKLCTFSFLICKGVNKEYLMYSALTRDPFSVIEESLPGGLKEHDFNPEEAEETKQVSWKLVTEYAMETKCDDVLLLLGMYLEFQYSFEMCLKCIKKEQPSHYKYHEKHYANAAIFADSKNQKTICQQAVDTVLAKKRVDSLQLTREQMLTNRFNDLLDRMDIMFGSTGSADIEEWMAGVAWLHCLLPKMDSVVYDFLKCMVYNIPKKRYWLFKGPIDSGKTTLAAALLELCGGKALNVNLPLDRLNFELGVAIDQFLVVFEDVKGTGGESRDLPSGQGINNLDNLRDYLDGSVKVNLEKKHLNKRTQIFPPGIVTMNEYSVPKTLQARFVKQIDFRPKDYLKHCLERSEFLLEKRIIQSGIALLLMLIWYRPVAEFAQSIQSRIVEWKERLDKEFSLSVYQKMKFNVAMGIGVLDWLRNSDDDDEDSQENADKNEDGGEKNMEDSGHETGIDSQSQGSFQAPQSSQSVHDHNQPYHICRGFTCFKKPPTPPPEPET

[17] = AlphaScreen signal interference compounds, dose response, artefact control for ARNT-TACC3 interaction inhibitor project, biochemical, luminescence, cherry-pick (AID 651705); format: functional;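 further: AlphaScreen bead proximity signal that flags compounds interfering with the detection technology; potency reflects signal decrease which marks the compound as an assay artifact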
[18] = Luminescence Cell-Based Dose Retest to Confirm Inhibitors of Cancer Stem Cells. [Related pubchem assays (depositor defined):AID2717, AID2721]; format: functional; conditions: Homo sapiens

With `C=CCN1C(=O)/C(=C/c2ccc(Br)s2)C(=O)NC1=S` as the compound, how does the CC50 (Vero [1]) read?
The CC50 was 24.2 µM (active).

Which EC50 [2] does the source give for `O=C(NC(=S)Nc1ccc(Br)cn1)c1cccnc1` here?
Its EC50 is > 91.2 µM (inactive).

What about the EC50 [3] of the same compound?
The EC50 was > 91.2 µM (inactive).

What does the source list for `Cc1ccc(S(=O)(=O)n2cccc2/C=C/[N+](=O)[O-])cc1`?
CC50 (Vero [1]): 9.49 µM (active); IC50 (Vero [4]): > 25 µM (active)

With `CSc1nc2c(=S)n(C)c(=O)n(C)c2[nH]1` as the compound, how does the EC50 [2] read?
Its EC50 is > 91.2 µM (inactive).

And the EC50 [3]?
Its EC50 is > 91.2 µM (inactive).

What does the source list for `O=C(N/N=C/c1ccccc1)c1ccc(CN2C(=O)c3cccc4cccc2c34)cc1`?
IC50 (Prothrombin): 69.8 µM (active); IC50 [5]: 10.7 µM (active); IC50 [6]: > 100 µM (inactive)

Which IC50 (cells [7]) does the source give for `O=C(N/N=C/c1ccsc1)c1ccccn1` here?
The IC50 was > 67.5 µM (inactive).

What about the IC50 [8] of the same compound?
The IC50 was > 67.5 µM (inactive).

With `COC(=O)c1nn(-c2ccc(C(C)C)cc2)c(=O)c(Oc2ccc(OC)cc2)c1Cl` as the compound, how does the IC50 [9] read?
The IC50 was 3.57 µM (active).

What does the source list for `Cc1cc(C)n(CCC(=O)N/N=C/c2c(O)ccc3ccccc23)n1`?
EC50 [10]: 8.69 µM (active); AC50 (A-375): 52.3 µM (active); AC50 [11]: 45.1 µM (active); EC50 [12]: 11 µM (active); EC50 (cells [13]): > 350 µM (not active); EC50 (cells [14]): 9.7 µM (active); AC50 (INS1): 3.53 µM (active); AC50 (Escherichia coli): 40.1 µM (active); EC50 [15]: 11 µM (active)

Which IC50 [16] does the source give for `C=CCn1c(CNc2ccccc2)nnc1SCC(=O)N/N=C/c1ccc(O)cc1O` here?
The IC50 was 68.8 µM (active).

And the IC50 (Large T antigen)?
The IC50 was > 100 µM (active).

What about the AC50 [17] of the same compound?
Its AC50 is 102 µM (active).

And the AC50 [18]?
Its AC50 is 5.46 µM (active).
